Reference: patent US10519179B2, “Highly efficient NRF2 activators-co-releasing molecule hybrids, their use in the treatment of inflammatory or cardiovascular diseases and their process of preparation” (Centre National de la Recherche Scientifique, priority 2015, dated 2019)
“Also recorded” adds a separate entry of the source. Counter-ions that a name gives are not always drawn.

Assays:
[1] = system: human THP-1 cells; test: cytotoxicity (LDH assay) in THP-1 cells; format: cell-based; conditions: 24 h, increasing concentrations, up to 10 μM
Method: (§1) Cytotoxicity was evaluated in THP-1 cells and H9c2 cardiomyocytes 24 h after incubation with increasing concentrations of compound C.
(§2) Human monocytes (THP-1 cells) were cultured in RPMI 1640-Glutamax medium supplemented with 1% penicillin/streptomycin, 1% sodium pyruvate and 10% fetal bovine serum (RPMIc). Cells at confluence were washed with PBS and treated with compound C at different concentrations and for different periods of time according to the experimental protocol. Compound C was dissolved in DMSO at 0.1% as a final concentration in complete medium.
(§3) Cell viability was assessed using the previously described LDH assay.

[2] = system: H9c2 cardiomyocytes; test: cytotoxicity (LDH assay) in H9c2 cardiomyocytes; format: cell-based, rat; conditions: 24 h, 20% or 5% oxygen, concentrations used
Method: as §1
H9c2 cardiomyocytes were cultured as previously (Example 4.2).
as §3

[3] = system: HO-1; test: HO-1 protein expression in H9c2 cardiomyocytes; format: cell-based, rat; conditions: 1 μM to 10 μM, 6 h or 24 h, 20% or 5% O2
Method: The assessment of HO-1 induction by western blotting was performed as previously (Example 4.1). H9C2 cells rat cardiomyocytes were cultured in Dubelcco's Modified Eagle Medium containing: glucose 4.5 g/l, L-glutamine 2 mM, pyruvate) supplemented with fetal bovine serum (FBS) 10%, a mixture of penicillin (10,000 IU/ml)/streptomycin (10 mg/ml) (Gibco Life Technologies) and sodium Pyruvate 1% (Gibco Life Technologies). Cells were grown and subcutlured either in a normal incubator at 20% O2 or in a dedicated chamber in which the O2 levels was kept constantly at 5%, a value which reflects more closely the O2 concentrations found in vivo. For the adaptation of cells at 5 O2, cells were grown and passaged at least twice before conducting any experiment.
H9c2 cardiomyocytes were then incubated with increasing concentration of compound C (1 μM to 10 μM) for 6 h or 24 h either at 20% or 5% O2.

[4] = system: Nrf2; test: Nrf2 expression in human THP-1 cells; format: cell-based
Method: as §2, with “concentrations” for “concentrations and”, “6 h” for “different periods of time”

[5] = system: Nrf2; test: nuclear expression of Nrf2 in BV2 microglia (Western blot); format: cell-based, mouse; conditions: cells and concentration not given
Method: (§4) Cells were grown in an atmosphere of 5% CO2 at 37° C. in either 75 cm^2 flasks, 100 mm diameter Petri dishes, 6- or 24-well plates containing medium supplemented with 10% fetal bovine serum (Lonza) and penicillin (100 U·mL^−1)/streptomycin ([…]; Life Technologies). BV2 mouse microglial cells were grown in RPMI-1640 containing 2 g·L^−1 glucose and supplemented with 0.3 g·L^−1 1-glutamine.
BV2 microglia were incubated with 10 μM of hybrids for 2 h to assess nuclear translocation of Nrf2. Nuclear fractions were isolated using a Nuclear Extract Kit from Active Motif (La Hulpe, Belgium), according to the manufacturer's instructions, and stored at −80° C. Protein concentrations were measured using a Pierce BCA Protein Assay kit (Thermo Scientific).
(§5) Whole cell lysates (20 μg protein/sample) were resolved on 12% acrylamide gels, respectively, and proteins transferred to polyvinylidene difluroride membranes (Millipore, Brussels, Belgium). […] Bands were detected with chemiluminescent substrates (Pierce ECL®, Thermo Scientific or RevelBIOt® Intense, Ozyme) and images captured using a G:Box F3 Imagery Station and GeneSys Software (Syngene, Cambridge, UK). […]

[6] = system: human THP-1 cells; test: CO delivery to human THP-1 cells loaded with COP-1; format: cell-based; conditions: 10 μM, 15 min at 37° C.
Method: To detect whether the compounds delivered CO to cells, human THP-1 cells were initially suspended in Dulbecco Phosphate Buffer Solution (+Ca, +Mg; Gibco® Cell Culture, Life Technologies) and then treated with compounds at a concentration of 10 μM for 15 min at 37° C. in 5 ml polypropylene round-bottom tubes (BD Falcon, Dominique Dutscher). Cells were then incubated for 30 min with 1 μM COP-1. Intracellular fluorescence of COP-1 was measured using a CyAnTM ADP LX7 Analyzer (Beckman Coulter) as previously reported.

[7] = blood HbCO levels in mice after oral gavage; format: in vivo; conditions: oral gavage, 1, 3 and 6 hours after administration
Method: Male C57 BL/6J mice were used for all experiments (Janvier Labs, France). Animals received at 8 weeks of age were placed on a standard diet and allowed to acclimatize for 2 weeks on a 12 hr light/dark cycle. All experiments were performed in compliance with INSERM guidelines for the use of animals and approved by the institutional review board at Paris-Est Creteil Val de Marne University. Mice were administered by oral gavage with a single dose of the following: 1) 200 μl of sesame oil (vehicle, control group); 2) Compound A (3 mg in 200 μl sesame oil); 3) Compound B (3 mg in 200 μl sesame oil).
Mice were sacrificed 6 hr after treatment by cervical dislocation. Livers, lungs, hearts and brains were excised and snap frozen for western blot analysis. Tissue samples were homogenized in lysis buffer (150 mM sodium chloride, 1.0% Triton X-100, 0.5% sodium deoxycholate 0.1% sodium dodecyl sulphate, 50 mM Tris, pH 8.0). Lysates were centrifuged for 20 min at 15,000 g at 4° C. and supernatants were collected and stored at −80° C. for further analysis. […] The release of CO from compounds of the invention was assessed spectrophotometrically by measuring the conversion of deoxyhemoglobin to carbonmonoxy hemoglobin (HbCO). […] The percent of HbCO was then calculated based on the absorbances at 420 and 432 nm with the reported extinction coefficients for mouse blood. […]

[8] = CO release in COP-1 fluorescence assay in buffer; format: physicochemical; conditions: in vitro conditions described in the examples, not specified further
Method: The release of CO from hybrids was assessed using COP-1, a fluorescent probe sensitive to CO. The fluorescence intensity of COP-1 (2 μM, Δex=475 nm) in buffer was measured in a cuvette to obtain a background fluorescence spectrum and spectra were then recorded immediately after addition of 50 μM tested compounds. The mean fluorescence intensity (MFI) of 3 independent reading was calculated using the fluorescence intensity values recorded at 507 nm after 60 min.

[9] = system: HO-1; test: HO-1 protein expression in BV2 microglia (Western blot); format: cell-based, mouse; conditions: cells and concentration not given
Method: as §4
To determine HO-1 protein expression, BV2 microglia were incubated with 10 μM hybrids (compounds) for 6 h. […] Protein concentrations were measured using a Pierce BCA Protein Assay kit (Thermo Scientific).
as §5

[10] = system: IL-1β; test: IL-1β production in LPS-treated human THP-1 cells (ELISA); format: cell-based; conditions: 5 μM, 24 h
Method: IL-1β production was measured in the supernatants of human THP-1 cells treated with LPS (100 μg/ml) in the presence or absence of 5 μM comp. C, DMF or CORM-401. After 24 h incubation, the medium was collected and IL-1β levels quantified using an ELISA kit (R&D Systems) following the manufacturer's instructions.

[11] = system: HO-1; test: HO-1 protein expression in human THP-1 cells; format: cell-based
Method: as §2, with “concentrations” for “concentrations and”, “6 h” for “different periods of time”

[12] = system: HO-1; test: cardiac HO-1 mRNA expression in mice after oral gavage; format: in vivo; conditions: 40 mg/kg oral gavage, 6 h
Method: (§6) FIG. 11 represents blood HbCO levels in vivo after compound C were administered to mice by oral gavage (FIG. 11A); mRNA expression of Nrf2 dependent genes (HO-1 and NQO-1) in the heart of mice after HbCO after administration of compound C (40 mg/kg) by oral gavage (FIG. 11B).

[13] = system: NQO1; test: cardiac NQO1 mRNA expression in mice after oral gavage; format: in vivo; conditions: 40 mg/kg oral gavage, 24 h
Method: as §6

[14] = system: BV2 microglia cells; test: reduced glutathione (GSH), DTNB colorimetric assay in BV2 microglia; format: cell-based, mouse; conditions: 10 μM
Method: The 5,5′ dithiobis-(2-nitrobenzoic acid) (DTNB) colorimetric assay was used for the measurement of reduced glutathione (GSH). Briefly, BV2 microglia cells were seeded in 6-well-plates and incubated with 10 μM hybrids and dimethyl fumarate (DMF, positive control) for 3, 6 and 24 h. At the end of the incubation period, cells were initially washed with phosphate buffers solution, then scraped in 600 μL of 2% (w/v) 5-sulposalicylic acid solution and transferred to a 1.5 ml microtube, and finally centrifuged for 5 min at 10,000×g. An aliquot of the supernatant (500 μl) was then reacted with 0.5 ml DTNB solution (0.3 M sodium phosphate buffer, 10 mM EDTA and 0.2 mM DTNB) and after 5 min the absorbance was read spectrophotometrically at 412 nm (extinction coefficient 14.3 mM^−1 cm^−1).

[15] = THP-1 cells, 6 h, different concentrations
[16] = identical concentrations (5 μM)

COc1ccc(/C=C/C(=O)OCCN(C)C2=[S][Mn][S]2)cc1OC.[C-]#[O+].[C-]#[O+].[C-]#[O+].[C-]#[O+] [Compound C]
toxicity toward human THP-1 cells [1]: do not show significant toxicity
toxic effect toward H9c2 cardiomyocytes [2]: does not cause any visible toxic effect
HO-1 protein expression [3]: induced an increase in HO-1 protein expression; also recorded: significant expression of HO-1
activation of Nrf2 [4, 15]: strongly promoted the activation of Nrf2
Nrf2 activation compared with CORM-401 and DMF [4, 16]: more potent than DMF and comparative compound CORM-401
nuclear expression of Nrf2 (summary statement) [5]: two fold increase
CO release in cells (intracellular COP-1 fluorescence) [6]: significant and high amount of CO
HbCO levels [7]: promotes an increase in HbCO levels
CO release (summary statement) [8]: significant amount of CO
HO-1 protein expression (summary statement) [9]: two fold increase
IL-1β production [10]: decreased IL-1β production
concentration from which an increase in HO-1 protein expression starts ([11]; THP-1 cells, 6 h): 1 µM
HO-1 protein expression [11, 15]: induction of HO-1 protein expression; also recorded: concentration-dependent increase in HO-1 protein expression
HO-1 activation compared with CORM-401 and DMF [11, 16]: more potent than DMF and comparative compound CORM-401
cardiac HO-1 mRNA expression [12]: promotes an increase
cardiac NQO1 mRNA expression [13]: promotes an increase

CN(CC(=O)O)C(=S)[S-].[C-]#[O+].[C-]#[O+].[C-]#[O+].[C-]#[O+].[Mn] [CORM-401, reference compound]
IL-1β production [10]: no effect
concentration from which an increase in HO-1 protein expression starts ([11]; THP-1 cells, 6 h): 10 fold this concentration is not sufficient

COC(=O)/C=C/C(=O)OC [DMF, dimethyl fumarate]
intracellular reduced glutathione (GSH) ([14]; 3 or 6 h): raised the level of GSH from 6 h of treatment
intracellular reduced glutathione (GSH) ([14]; 24 h): significant raise
IL-1β production [10]: no effect
concentration from which an increase in HO-1 protein expression starts ([11]; THP-1 cells, 6 h): 10 fold this concentration is not sufficient
